Source: patent publication US8846746B2, “Pyrazole compound and pharmaceutical use thereof” (Japan Tobacco Inc., priority 2011, dated 2014)

target: human SGLT1 (Homo sapiens (Human), UniProt P13866); assay: SGLT1 inhibitory activity: 14C-AMG uptake into CHO-K1 cell line stably expressing human SGLT1; assay type: cell-based; conditions: 14C-AMG uptake, CHO-K1 cells expressing human SGLT1
Procedure, shortened: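 Human SGLT1 was stably expressed in CHO-K1 cells. Cells were first held 20 min in sodium-free buffer, then exposed to compound in Na(+)/BSA buffer with tracer and AMG (2 mM in the added solution).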

Chain of human SGLT1 (P13866 whole entry): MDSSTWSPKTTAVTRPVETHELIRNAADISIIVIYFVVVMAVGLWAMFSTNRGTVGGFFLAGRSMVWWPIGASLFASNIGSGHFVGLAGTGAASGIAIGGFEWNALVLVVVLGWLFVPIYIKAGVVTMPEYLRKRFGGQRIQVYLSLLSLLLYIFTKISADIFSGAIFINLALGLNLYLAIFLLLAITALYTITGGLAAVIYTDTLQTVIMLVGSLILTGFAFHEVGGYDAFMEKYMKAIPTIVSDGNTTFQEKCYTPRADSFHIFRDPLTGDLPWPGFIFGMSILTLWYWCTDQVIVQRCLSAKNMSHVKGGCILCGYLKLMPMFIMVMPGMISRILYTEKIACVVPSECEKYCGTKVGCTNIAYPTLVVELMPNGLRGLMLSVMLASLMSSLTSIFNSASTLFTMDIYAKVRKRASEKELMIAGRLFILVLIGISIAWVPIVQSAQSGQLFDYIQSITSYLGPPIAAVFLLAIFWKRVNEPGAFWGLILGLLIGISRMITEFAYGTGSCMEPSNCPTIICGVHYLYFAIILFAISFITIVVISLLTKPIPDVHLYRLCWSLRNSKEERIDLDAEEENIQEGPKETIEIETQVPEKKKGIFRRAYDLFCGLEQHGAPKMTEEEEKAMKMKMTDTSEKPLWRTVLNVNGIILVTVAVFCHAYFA

Question: How did the IC50 turn out when `CCC(F)(F)c1cccc(-c2cc(NC(=O)[C@H]3CNC(=O)C3)nn2-c2ccc(F)cc2)c1` [Example 173] was run?
Answer: 0.013 µM

Question: For `CC(C)(O)c1cccc(-c2cc(NC(=O)[C@H]3CNC(=O)C3)nn2-c2ccccc2)c1` [Example 80], which IC50 is on record?
Answer: 0.22 µM

Question: For `CCCc1cc(-c2cc(NC(=O)[C@H]3CNC(=O)C3)nn2-c2ccccc2)ccc1F` [Example 50], which IC50 is on record?
Answer: 0.022 µM

Question: Which IC50 does the source give for `CCC(F)(F)c1cccc(-c2cc(NC(=O)C3CCC(=O)NC3)nn2C2CCOCC2)c1` (single isomer, unassigned) [Example 185] here?
Answer: 0.066 µM

Question: With `O=C1CC(C(=O)Nc2cc(-c3ccccc3)n(-c3ccccc3)n2)CN1` (racemic) [Example 9] as the compound, how does the IC50 read?
Answer: 1.6 µM

Question: How did the IC50 turn out when `CCC(F)(F)c1cccc(-c2cc(NC(=O)[C@H]3CNC(=O)[C@@H]3C)nn2-c2ccccc2)c1` [Example 154] was run?
Answer: 0.0011 µM

Question: With `COc1cccc(-n2nc(NC(=O)[C@H]3CNC(=O)C3)cc2-c2cccc(OC(F)(F)F)c2)c1` [Example 163] as the compound, how does the IC50 read?
Answer: 0.0071 µM

Question: `CCCc1cccc(-c2cc(NC(=O)[C@@H]3CNC(=O)C3)nn2C(F)(F)F)c1` [Example 87] was tested. Which IC50 did it give?
Answer: 0.11 µM

Question: How did the IC50 turn out when `Cc1ccccc1-n1nc(NC(=O)[C@H]2CNC(=O)C2)cc1-c1cccc(C(F)(F)F)c1` [Example 224] was run?
Answer: 0.0063 µM

Question: `CC1(C)CCC=C(c2cc(NC(=O)[C@H]3CNC(=O)C3)nn2-c2ccccc2)C1` [Example 78] was tested. Which IC50 did it give?
Answer: 0.0077 µM

Question: How did the IC50 turn out when `O=C1C[C@@H](C(=O)Nc2cc(-c3cccc(OC(F)(F)F)c3)n(-c3ccccc3F)n2)CN1` [Example 131] was run?
Answer: 0.0063 µM

Question: Which IC50 does the source give for `O=C1C[C@@H](C(=O)Nc2cc(-c3cccc(OC(F)(F)F)c3)n(CCC3CCOCC3)n2)CN1` [Example 201] here?
Answer: 0.093 µM

Question: With `CCOc1cccc(-c2cc(NC(=O)[C@H]3CNC(=O)C3)nn2-c2ccccc2)c1` [Example 30] as the compound, how does the IC50 read?
Answer: 0.095 µM

Question: For `O=C1C[C@@H](C(=O)Nc2cc(C3=CCCCC3)n(-c3ccccc3)n2)CN1` [Example 47], which IC50 is on record?
Answer: 0.42 µM

Question: Which IC50 does the source give for `CCCc1cccc(-c2cc(NC(=O)[C@H]3CNC(=O)C3)nn2C2CCOCC2)c1` [Example 136] here?
Answer: 0.028 µM

same assay, conditions: 14C-AMG uptake, CHO-K1 cells stably expressing human SGLT1

Question: For `CCCc1cccc(-c2cc(NC(=O)[C@@H]3CNC(=O)C3)nn2-c2cccc(C(F)(F)F)c2)c1` [Example 401], which IC50 is on record?
Answer: 0.013 µM

Question: Which IC50 does the source give for `O=C1C[C@H](C(=O)Nc2cc(-c3cc(Cl)cc(COCC(F)(F)F)c3)n(-c3cccc(F)c3)n2)CN1` [Example 588] here?
Answer: 0.04 µM

Question: With `O=C1C[C@H](C(=O)Nc2cc(-c3cccc(COC(C(F)(F)F)C(F)(F)F)c3)n(-c3ccc(F)cc3)n2)CN1` [Example 409] as the compound, how does the IC50 read?
Answer: 0.012 µM

Question: `CCCc1cccc(-c2cc(NC(=O)[C@@H]3CNC(=O)C3)nn2-c2cccc(CC(C)C)c2)c1` [Example 496] was tested. Which IC50 did it give?
Answer: 0.0069 µM

Question: For `CCCOc1cccc(-n2nc(NC(=O)[C@@H]3CNC(=O)C3)cc2-c2cccc(OC(F)(F)F)c2)c1` [Example 444], which IC50 is on record?
Answer: 0.01 µM

Question: How did the IC50 turn out when `CCCc1cccc(-c2cc(NC(=O)[C@@H]3CNC(=O)C3)nn2-c2cccc(O)c2)c1` [Example 341] was run?
Answer: 0.06 µM

Question: For `C[C@@H](OCc1cc(Cl)cc(-c2cc(NC(=O)[C@@H]3CNC(=O)C3)nn2C2CCOCC2)c1)C(F)(F)F` [Example 584], which IC50 is on record?
Answer: 0.084 µM

Question: Which IC50 does the source give for `O=C1C[C@H](C(=O)Nc2cc(-c3cccc(CNCC(F)(F)F)c3)n(-c3ccccc3)n2)CN1` [Example 501] here?
Answer: 0.069 µM

Question: For `CCCc1cccc(-c2cc(NC(=O)[C@@H]3CNC(=O)C3)nn2-c2cccc(OCC(C)C)c2)c1` [Example 381], which IC50 is on record?
Answer: 0.0115 µM

Question: `CC(C)(C)COCc1cccc(-c2cc(NC(=O)[C@@H]3CNC(=O)C3)nn2-c2ccccc2)c1` [Example 315] was tested. Which IC50 did it give?
Answer: 0.0155 µM

Question: Which IC50 does the source give for `CCCc1cccc(-c2cc(NC(=O)[C@@H]3CNC(=O)C3)nn2-c2ccc(OCC(F)(F)F)cc2)c1` [Example 375] here?
Answer: 0.013 µM

Question: Which IC50 does the source give for `CC(C)(OCc1cc(F)cc(-c2cc(NC(=O)[C@@H]3CNC(=O)C3)nn2-c2ccc(F)cc2)c1)C(F)(F)F` [Example 595] here?
Answer: 0.01 µM

Question: For `Cc1cc(-c2cc(NC(=O)[C@@H]3CNC(=O)C3)nn2-c2ccccc2)cc(C(C)(C)C)c1` [Example 411], which IC50 is on record?
Answer: 0.0044 µM

Question: How did the IC50 turn out when `CCCc1cccc(-c2cc(NC(=O)[C@@H]3CNC(=O)C3)nn2-c2ccc(OCCC(F)(F)F)cc2)c1` [Example 374] was run?
Answer: 0.0088 µM

Question: For `CCCOc1cc(-n2nc(NC(=O)[C@@H]3CNC(=O)C3)cc2-c2cccc(OC(F)(F)F)c2)ccc1F` [Example 423], which IC50 is on record?
Answer: 0.016 µM

Question: How did the IC50 turn out when `C[C@H]1C(=O)NC[C@@H]1C(=O)Nc1cc(-c2cccc(COCC(F)(F)F)c2)n(-c2ccccc2)n1` [Example 559] was run?
Answer: 0.0077 µM

Question: With `C[C@@H](OCc1cccc(-c2cc(NC(=O)[C@@H]3CNC(=O)N3)nn2-c2ccccc2)c1)C(F)(F)F` [Example 562] as the compound, how does the IC50 read?
Answer: 0.013 µM

Question: For `C[C@@H](OCc1cc(Cl)cc(-c2cc(NC(=O)[C@@H]3CNC(=O)C3)nn2-c2ccc(F)cc2)c1)C(F)(F)F` [Example 242, (S)-5-oxopyrrolidine-3-carboxylic acid{5-[3-chloro-5-((R)-2,2,2-trifluoro-1-methylethoxymethyl)phenyl]-1-(4-fluorophenyl)-1H-pyrazol-3-yl}amide], which IC50 is on record?
Answer: 0.009 µM

Question: With `CC(C)COc1cccc(-c2cc(NC(=O)[C@H]3CNC(=O)C3)nn2-c2ccccc2)c1` [Example 287] as the compound, how does the IC50 read?
Answer: 0.012 µM

Question: For `CCCc1cccc(-c2cc(NC(=O)[C@@H]3CNC(=O)C3)nn2-c2ccc(F)c(OCCOC)c2)c1` [Example 414], which IC50 is on record?
Answer: 0.0115 µM

Question: `O=C1NC[C@H](C(=O)Nc2cc(-c3cccc(COC(C(F)(F)F)C(F)(F)F)c3)n(-c3ccccc3)n2)O1` [Example 366] was tested. Which IC50 did it give?
Answer: 0.02 µM

Question: `CC(C)(C)CCOc1cccc(-c2cc(NC(=O)C3CCC(=O)NC3)nn2-c2ccccc2)c1` (single isomer, unassigned) [Example 342] was tested. Which IC50 did it give?
Answer: 0.045 µM

Question: How did the IC50 turn out when `CCCc1cccc(-c2cc(NC(=O)[C@H]3COC(=O)N3)nn2-c2ccccc2)c1` [Example 369] was run?
Answer: 0.015 µM

Question: How did the IC50 turn out when `C[C@@H](OCc1cc(Cl)cc(-c2cc(NC(=O)[C@@H]3CNC(=O)C3)nn2-c2ccccc2F)c1)C(F)(F)F` [Example 577] was run?
Answer: 0.0067 µM

Question: `CCCc1cccc(-c2cc(NC(=O)[C@@H]3CNC(=O)C3)nn2-c2ccc(O)cc2)c1` [Example 371] was tested. Which IC50 did it give?
Answer: 0.036 µM

Question: With `CC(C)Oc1cccc(-n2nc(NC(=O)[C@@H]3CNC(=O)C3)cc2-c2cccc(OC(F)(F)F)c2)c1` [Example 445] as the compound, how does the IC50 read?
Answer: 0.0067 µM

Question: With `O=C1C[C@H](C(=O)Nc2cc(-c3cccc(OC(F)(F)F)c3)n(-c3cccc(OCc4ccccc4)c3)n2)CN1` [Example 436] as the compound, how does the IC50 read?
Answer: 0.019 µM

same assay, conditions: CHO-K1, at 0.1 uM

Question: How did the inhibition at 0.1 µM turn out when `CCS(=O)(=O)Cc1cccc(-c2cc(NC(=O)[C@@H]3CNC(=O)C3)nn2-c2ccccc2)c1` [Example 541] was run?
Answer: 24%

Question: With `O=C1C[C@H](C(=O)Nc2cc(-c3cccc(OC(F)(F)F)c3)n(-c3cccc(O)c3)n2)CN1` [Example 439] as the compound, how does the inhibition at 0.1 µM read?
Answer: 45%

Question: How did the inhibition at 0.1 µM turn out when `C[C@@H]1C[C@H](n2nc(NC(=O)[C@H]3CNC(=O)[C@@H]3C)cc2-c2cccc(OC(F)(F)F)c2)C[C@H](C)O1` [Example 221] was run?
Answer: 15%

Question: How did the inhibition at 0.1 µM turn out when `C[C@@H]1C[C@@H](n2nc(NC(=O)[C@H]3CNC(=O)[C@@H]3C)cc2-c2cccc(OC(F)(F)F)c2)C[C@H](C)O1` [Example 220] was run?
Answer: 16%

Question: `O=C1C[C@H](C(=O)Nc2cc(-c3cccc(S(=O)(=O)CC(F)(F)F)c3)n(-c3ccccc3)n2)CN1` [Example 550] was tested. Which inhibition at 0.1 µM did it give?
Answer: 29%

Question: How did the inhibition at 0.1 µM turn out when `CCC(F)(F)c1cccc(-c2cc(NC(=O)[C@H]3CNC(=O)C3)nn2CCOC(C)C)c1` [Example 175] was run?
Answer: 40%

Question: Which inhibition at 0.1 µM does the source give for `CC(C)NC(=O)c1cccc(-c2cc(NC(=O)[C@@H]3CNC(=O)C3)nn2-c2ccccc2)c1` [Example 431] here?
Answer: 21%

same assay, conditions: CHO-K1, at 0.3 uM

Question: `CCCc1cccc(-c2cc(NC(=O)[C@H]3CNC(=O)N3CC(=O)O)nn2-c2ccccc2)c1` [Example 348] was tested. Which inhibition at 0.3 µM did it give?
Answer: 26%
